In ChEMBL document CHEMBL4706623, “GPR52 Antagonist Reduces Huntingtin Levels and Ameliorates Huntington's Disease-Related Phenotypes” (J Med Chem, 2021):

Target: G-protein coupled receptor 52 (Homo sapiens, UniProt Q9Y2T5)
Assay: Antagonist activity at GPR52 (unknown origin) expressed in HEK293 cells assessed as inhibition of WO459-induced cAMP accumulation preincubated for 15 mins followed by WO459 addition and measured after 30 mins by LANCE Ultra cAMP kit based microplate reader analysis; call rule not given here
Format: functional, cell-based

Sequence of G-protein coupled receptor 52 (Q9Y2T5 whole entry): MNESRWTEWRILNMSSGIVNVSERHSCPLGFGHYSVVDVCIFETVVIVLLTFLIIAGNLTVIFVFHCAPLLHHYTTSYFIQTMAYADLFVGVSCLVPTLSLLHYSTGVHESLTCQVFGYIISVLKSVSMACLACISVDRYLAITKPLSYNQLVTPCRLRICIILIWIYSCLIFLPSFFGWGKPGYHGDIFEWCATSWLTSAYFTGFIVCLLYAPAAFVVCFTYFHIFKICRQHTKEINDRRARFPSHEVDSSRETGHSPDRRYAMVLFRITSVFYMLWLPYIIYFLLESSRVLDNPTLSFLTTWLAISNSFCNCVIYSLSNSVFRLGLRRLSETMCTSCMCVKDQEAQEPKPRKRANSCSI

SMILES | IC50 (hek293) | IC50 (read-out: IC50) [µM]
O=C(/C=C/CCc1ccccc1)c1cccc(-c2ccccc2)c1 | – | 8.13
Cc1ccc(C(=O)/C=C/CCc2ccccc2)cc1 | – | 3.02
Cc1ccccc1C(=O)/C=C/CCc1ccccc1 | – | 2.63

Now from value to molecule:

IC50 (hek293) | IC50 (read-out: IC50) [µM] | SMILES
Not Active | – | O=C(/C=C/CCc1ccccc1)c1ccc(F)cc1
– | 3.29 | O=C(/C=C/CCc1ccccc1)c1cccc2ccccc12
– | 1.82 | O=C(/C=C/CCc1ccccc1)c1ccccn1
